The results in this text go back to patent US11833181B1, “Method of treating or preventing Alzheimer's Disease” (KING FAISAL UNIVERSITY, priority 2023, dated 2023).

Holding throughout (format): in vivo, rat
The subject of test [1] is aluminum chloride (AlCl3)-induced Alzheimer-like disease in rats. Nature of the test: Nitric oxide (nitrite) level in brain homogenate of AlCl3-induced Alzheimer-like rats. Here is the method:
(§1) The neuroprotective effects of silymarin (SM) were tested on the hippocampal tissues of aluminum chloride (AlCl3)-induced Alzheimer's-like disease in rats using biochemical, histological, and immune-histochemical examination. For this experiment, 42 mature male albino rats were divided equally into 6 groups each of 7 rats as follows: • Group I: Rats injected with distilled water and served as the control group (non-induced); • Group II: Rats injected with AlCl3; • Group III: Rats injected with AlCl3, then silymarin; • Group IV: Rats injected with AlCl3, then collagen; • Group V: Rats injected with AlCl3 then silymarin nanoparticles; • Group VI: Rats injected with AlCl3 then silymarin+collagen nanoparticles.
(§2) All of the experimental animals were sacrificed, and their brains dissected to take out the cortex section. The homogenates (10%, w/v) were then centrifuged at 10,000 rpm for 15 min and the supernatants were conserved at […] for subsequent biochemical evaluations to determine, oxidative stress markers, catalase activity, superoxide dismutase, glutathione peroxidase, glutathione reductase; and lipid peroxidation.
Nitric oxide was rapidly oxidized to nitrite (NO^2−) and/or nitrate (NO^3−) by oxygen. In this method, nitrite was first treated with a diazotizing reagent, e.g., sulfanilamide (SA), in acidic media to form a transient diazonium salt. This intermediate was then allowed to react with a coupling reagent, N-naphthyl-ethylene diamine, to form a stable azo compound. The intense purple color of the product allows nitrite assay with high sensitivity and can be used to measure nitrite concentration as low as […]. The absorbance of this adduct at 540 nm is linearly proportional to the nitrite concentration in the sample.
The reagents included sulphanilamide (10 mM), N-(1-naphthyl) ethylenediamine, (1 mM), and standard sodium nitrite solution (100 μM). To four test tubes, each containing 1 ml sulphanilamide, 100 μl of either homogenate (test), standard solution (standard), or distilled water (blank) were added. The four test tubes were incubated for 5 minutes at room temperature. Then, 100 μl N-(1-naphthyl) ethylene diamine was added to all tubes and allowed to stand for 20 min at room temperature. The absorbance of the test and standard was read at 540 nm against blank.
The homogenate NO level was calculated according to the following equation: NO level (μM/g protein)=[As Ast×Standard concentration×10]/total proteins, where; • As: Absorbance of the sample (homogenate); • Ast: Absorbance of standard; and • 10: The sample dilution factor.
(§3) Male albino rats were pretreated with one dose of the nano-formulation of 200 mg/kg/day for 15 days orally. The animals were then evaluated for neurobehavioral, infarct analysis, biochemical, histopathological studies.

Test [2] has the same test system. Nature of the test: Lipid peroxidation (TBARS) in brain homogenate of AlCl3-induced Alzheimer-like rats. As to the method:
as §1, §2
Lipid peroxidation was determined by measuring the thiobarbituric reactive substances (TBARS) in the homogenate where: Thiobarbituric acid+malondialdehyde Colored product+2 H2O Malondialdehyde (MDA), a major secondary product of lipid peroxidation (LPO) reacts with thiobarbituric acid (TBA), producing pink color adducts on heating. This reaction has been widely adopted as a sensitive method for lipid peroxidation that represents a major indicator of oxidative stress.
In four test tubes, homogenate supernatant (test) or water (blank) was added to 1 ml TCA and mixed well, then the solutions were centrifuged at 3000 rpm for 10 min. One milliliter of the supernatant of each of the previous four test tubes was added to 0.5 ml of TBA and heated for 30 min at 90° C. then cooled. The absorbance of samples (As) was read at 532 nm against blank.
The concentration of proteins was estimated. The levels of TBARS were calculated with the following equations:
For tissue homogenate: As: TBARS level (μmol/g protein)=(0.156×total protein×1000)×10, where; • As: absorbance of the sample (homogenate); • 0.156: molar extinction coefficient (μM−1 cm^−1); and • 10: the sample dilution factor.
as §3

Test [3] has the same test system. The experiment in a line: Reduced glutathione (GSH) level in brain homogenate of AlCl3-induced Alzheimer-like rats. Here is the method:
as §1, §2
To determine homogenate reduced glutathione (GSH) level, GSH was allowed to react with 5,5′-dithio-bis-2-nitrobenzoic acid (DTNB) (equation below), known as Ellman's reagent, generating a yellow-colored 2-nitro-5-thiobenzoic acid product. DTNB+2 GSH Glutathione reductase 2-nitro-5-thiobenzoic acid
The reagents used included sulfosalicylic acid, 4%; phosphate buffer, 0.1 M, pH 7.4 and pH 8; DTNB, 10 mM, 19.8 mg in 10 ml phosphate buffer pH 8, and standard GSH, and 1 mg/dl (32.54 μM) in phosphate buffer pH 7.4.
Proteins in 0.1 ml of either homogenate supernatants (samples) were precipitated using 0.1 ml of 4% sulfosalicylic acid. The samples were kept at 4° C. for at least 1 hour and then subjected to centrifugation at 3000 rpm for 10 min at 4° C. The assay mixture contained 0.1 ml supernatant, 2.7 ml phosphate buffer (0.1 M, pH 7.4), and 0.2 ml DTNB in a total volume of 3 ml.
The standard and blank experiment was carried out as above using 0.1 ml of standard GSH and distilled water, respectively instead of samples. The absorbance of the developed yellow color of samples and standard was read against blank at 412 nm.
The tissue contents of GSH were estimated using the following equation; GSH level (μmol/g protein)=[As Ast×Standard concentration×10]/total proteins, • where; • As: Absorbance of the sample (homogenate); • Ast: Absorbance of standard; and • 10: The tissue dilution.
as §3

Test [4] has the same test system. The experiment in a line: Catalase activity in brain homogenate of AlCl3-induced Alzheimer-like rats. Here is the method: as §1, §2
Catalase reacts with a known quantity of H2O2. The reaction is stopped after exactly one minute with a catalase inhibitor. In the presence of peroxidase (HRP), remaining H2O2 reacts with 3,5-Dichloro-2-hydroxybenzene sulfonic acid (DHBS) and 4-aminophenazone (AAP) to form a chromophore with a color intensity inversely proportional to the amount of catalase in the original sample.
The reagents included: • buffer (Phosphate buffer, pH 7.0 Detergent)−100 mM/L; • H2O2 (substrate and standard) (Dilute 1000 times)−500 mM/L • Chromogen—Inhibitor— • Enzyme: Peroxidase 4-Aminoantipyrine Preservative->2000/L 2 mM/L.
as §3

Setting [5] is: Table 1, single animal samples (code = group G + animal H), brain homogenate supernatant.
[6] abbreviates: Table 2, value ± spread per treatment group, Example 5, nano-formulation 200 mg/kg/day for 15 days orally.

Values joined by “and” are separate entries in the source; they are usually repeats but may differ in a detail not shown here. Identical values can stand only once. Marks after values point to notes of the source that are not given here.

For `[Cl][Al]([Cl])[Cl]` [AlCl3, aluminum chloride], the NO in test [1] (setting [5]) is 61.67 μM/g protein and 65.00 μM/g protein; in test [1] (setting [6]), 36.18 ± 0.58^bc. The TBARS in test [2] (setting [5]) was 1.54 μmol/g protein and 1.48 μmol/g protein; in test [2] (setting [6]), 0.68 ± 0.04^bc. The GSH in test [3] (setting [5]) is 12.06 μmol/g protein and 14.51 μmol/g protein; in test [3] (setting [6]), 19.03 ± 3.89^bc. For the same compound, the Catalase was 54 U/g and 65 U/g in test [4] (setting [5]); 84.33 ± 17.27^bc in test [4] (setting [6]).
On to collagen, for which the NO was 37.22 μM/g protein and 36.11 μM/g protein in test [1] (setting [5]); 34.91 ± 0.83^bc in test [1] (setting [6]). Moreover, the TBARS in test [2] (setting [5]) is 0.74 μmol/g protein and 0.60 μmol/g protein; in test [2] (setting [6]) it was 0.71 ± 0.01^bc. The GSH in test [3] (setting [5]) was 24.78 μmol/g protein and 11.61 μmol/g protein; in test [3] (setting [6]), 14.44 ± 0.58^b. Moreover, the Catalase in test [4] (setting [5]) was 111 U/g and 52 U/g; in test [4] (setting [6]), 62.33 ± 1.45^b.
